Experimental data from PubChem BioAssay (NCI).
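1) Cells in 96-well plates. 2) Compound, 48 h, 5 concentrations. 3) Linear interpolation between surrounding doses. 4) Unreached endpoint = highest concentration. TGI denotes the concentration required for complete inhibition of growth.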

Key:
Test in all cases: growth of human tumour cells (NCI), 48 h
786-0 renal = system: 786-0 renal
A498 renal = system: A498 renal
A549 NSCLC = system: A549 NSCLC
ACHN renal = system: ACHN renal
BT-549 breast = system: BT-549 breast
CAKI-1 renal = system: CAKI-1 renal
CCRF-CEM leukemia = system: CCRF-CEM leukemia
COLO 205 colon = system: COLO 205 colon
DU-145 prostate = system: DU-145 prostate
EKVX NSCLC = system: EKVX NSCLC
HCT-116 colon = system: HCT-116 colon
HCT-15 colon = system: HCT-15 colon
HL-60(TB) leukemia = system: HL-60(TB) leukemia
HOP-62 NSCLC = system: HOP-62 NSCLC
HOP-92 NSCLC = system: HOP-92 NSCLC
HS 578T breast = system: HS 578T breast
HT29 colon = system: HT29 colon
IGROV1 ovarian = system: IGROV1 ovarian
KM12 colon = system: KM12 colon
LOX IMVI melanoma = system: LOX IMVI melanoma
M14 melanoma = system: M14 melanoma
MALME-3M melanoma = system: MALME-3M melanoma
MCF7 breast = system: MCF7 breast
MDA-MB-231 breast = system: MDA-MB-231 breast
MDA-MB-435 = system: MDA-MB-435
MDA-N = system: MDA-N
MOLT-4 leukemia = system: MOLT-4 leukemia
NCI-H226 lung = system: NCI-H226 lung
NCI-H23 lung = system: NCI-H23 lung
NCI-H460 lung = system: NCI-H460 lung
NCI-H522 lung = system: NCI-H522 lung
NCI/ADR-RES ovarian = system: NCI/ADR-RES ovarian
OVCAR-3 ovarian = system: OVCAR-3 ovarian
OVCAR-4 ovarian = system: OVCAR-4 ovarian
OVCAR-5 ovarian = system: OVCAR-5 ovarian
OVCAR-8 ovarian = system: OVCAR-8 ovarian
PC-3 prostate = system: PC-3 prostate
RPMI-8226 leukemia = system: RPMI-8226 leukemia
RXF 393 renal = system: RXF 393 renal
SF-268 CNS = system: SF-268 CNS
SF-295 CNS = system: SF-295 CNS
SF-539 CNS = system: SF-539 CNS
SK-MEL-2 melanoma = system: SK-MEL-2 melanoma
SK-MEL-28 melanoma = system: SK-MEL-28 melanoma
SK-MEL-5 melanoma = system: SK-MEL-5 melanoma
SK-OV-3 ovarian = system: SK-OV-3 ovarian
SN12C renal = system: SN12C renal
SNB-19 CNS = system: SNB-19 CNS
SNB-75 CNS = system: SNB-75 CNS
SR leukemia = system: SR leukemia
SW-620 colon = system: SW-620 colon
T-47D breast = system: T-47D breast
TK-10 renal = system: TK-10 renal
U251 CNS = system: U251 CNS
UACC-62 melanoma = system: UACC-62 melanoma
UO-31 renal = system: UO-31 renal
K-562 leukemia = system: K-562 leukemia

Measured: TGI

NC(=O)C1CCCNC1 (stereo unspecified)
not listed: K-562 leukemia
> 100 µM: all other assays above

O=C(O)C1(Nc2ccc(Cl)cc2)CCCC1
not listed: MOLT-4 leukemia | SF-539 CNS
> 100 µM: all other assays above
